# System: HCV genotype 1a replicon cell line
# Assay: EC50 in HCV genotype 1a replicon cell line
# Format: cell-based
# Details: Hepatitis C virus, read-out: EC50 value for the HCV genotype 1a replicon cell line
row,SMILES,EC50
1,COC(=O)N[C@H](C(=O)N1CCC[C@H]1C(=O)Nc1ccc([C@@H]2CC[C@@H](c3ccc(NC(=O)[C@@H]4CCCN4C(=O)[C@@H](NC(=O)OC)C(C)C)cc3)N2c2ccc(C(C)(C)C)cc2)cc1)C(C)C [Compound 4],0.01 nM
2,"Cc1cnc(C(=O)N[C@H]2CCCCC/C=C\[C@@H]3C[C@@]3(C(=O)NS(=O)(=O)C3CC3)NC(=O)[C@@H]3C[C@@H](Oc4nc5ccccc5c5ccccc45)CN3C2=O)cn1 [Compound 1, (2R,6S,13aS,14aR,16aS,Z)—N-(cyclopropylsulfonyl)-6-(5-methylpyrazine-2-carboxamido)-5,16-dioxo-2-(phenanthridin-6-yloxy)-1,2,3,5,6,7,8,9,10,11,13a,14,14a,15,16,16a-hexadecahydrocyclopropa[e]pyrrolo[1,2-a][1,4]diazacyclopentadecine-14a-carboxamide]",0.9 nM
3,"COc1c(-c2ccc3cc(NS(C)(=O)=O)ccc3c2)cc(-n2ccc(=O)[nH]c2=O)cc1C(C)(C)C [Compound 2, N-(6-(3-tert-butyl-5-(2,4-dioxo-3,4-dihydropyrimidin-1(2H)-yl)-2-methoxyphenyl)naphthalen-2-yl)methanesulfonamide]",7.7 nM

# From US8685984B2, “Methods for treating HCV” (AbbVie Inc., priority 2011, dated 2014)
